As a reminder, the IC50 is the concentration that gives 50% inhibition. What is called EC50 is the midpoint of the concentration-response curve. A higher EC50 goes with a need for much substance.

In the first test the target is Histone deacetylase. Put plainly: Inhibitory concentration determined against Histone deacetylase from Eimeria tenella.
`CCC(C)[C@@H]1NC(=O)[C@H](Cc2cn(OC)c3ccccc23)NC(=O)[C@H](CCCCCC(=O)NO)NC(=O)[C@H]2CCCCN2C1=O` (stereo partly drawn) [6-[(6S,9S,12S,14aR)-6-sec-Butyl-9-(1-methoxy-1H-indol-3-ylmethyl)-5,8,11,14-tetraoxo-tetradecahydro-4a,7,10,13-tetraaza-benzocyclododecen-12-yl]-hexanoic acid hydroxyamide] returned an IC50 of 4 nM.

Turning to `CCC(C)[C@@H]1NC(=O)[C@H](Cc2cn(OC)c3ccccc23)NC(=O)[C@H](CCCCCC(=O)OC)NC(=O)[C@H]2CCCCN2C1=O` (stereo partly drawn) [6-[(6S,9S,12S,14aR)-6-sec-Butyl-9-(1-methoxy-1H-indol-3-ylmethyl)-5,8,11,14-tetraoxo-tetradecahydro-4a,7,10,13-tetraaza-benzocyclododecen-12-yl]-hexanoic acid methyl ester], the midpoint of inhibition, the IC50, lay at 0.8 nM.

Molecule `CCC(C)[C@@H]1NC(=O)[C@H](Cc2cn(OC)c3ccccc23)NC(=O)[C@H](CCCCCC(=O)O)NC(=O)[C@H]2CCCCN2C1=O` (stereo partly drawn) [6-[(6S,9S,12S,14aR)-6-sec-Butyl-9-(1-methoxy-1H-indol-3-ylmethyl)-5,8,11,14-tetraoxo-tetradecahydro-4a,7,10,13-tetraaza-benzocyclododecen-12-yl]-hexanoic acid] came in with an IC50 of 30 nM. This IC50 lies about 38-fold higher than the previous one.

On to `CCC(C)[C@@H]1NC(=O)[C@H](Cc2cn(OC)c3ccccc23)NC(=O)[C@H](CCCCCC(=O)C2CO2)NC(=O)[C@H]2CCCCN2C1=O` (stereo partly drawn) [(6S,9S,12S,14aR)-6-sec-Butyl-9-(1-methoxy-1H-indol-3-ylmethyl)-12-(6-oxiranyl-6-oxo-hexyl)-decahydro-4a,7,10,13-tetraaza-benzocyclododecene-5,8,11,14-tetraone], for which the IC50 was found to be 1 nM.

For the molecule `CCC(C)[C@@H]1NC(=O)[C@H](Cc2cn(OC)c3ccccc23)NC(=O)[C@H](CCCCCC(=O)C(C)O)NC(=O)[C@H]2CCCCN2C1=O` (stereo partly drawn) [(6S,9S,12S,14aR)-6-sec-Butyl-12-(7-hydroxy-6-oxo-octyl)-9-(1-methoxy-1H-indol-3-ylmethyl)-decahydro-4a,7,10,13-tetraaza-benzocyclododecene-5,8,11,14-tetraone], the IC50 came out at 4 nM.

Target in the next test: not listed separately
The experiment in a line: Inhibition of acetylation of histone-4 in human T-24 cancer cells.
As for `CN(c1ccc(/C=C/C(=O)NO)cc1)S(=O)(=O)c1ccccc1`, the concentration for a half-maximal effect (EC50) is greater than 25000 nM.

Turning to `O=C(/C=C/c1ccc(S(=O)(=O)Nc2ccc(-c3ccccc3)cc2)cc1)NO`, the EC50 is 1000 nM.

Turning to `COc1ccc(NC(=O)Nc2ccc(/C=C/C(=O)NO)cc2)cc1OC`, the EC50 was greater than 25000 nM.

For `O=C(Cc1ccc(NS(=O)(=O)c2ccccc2)cc1)NO` [2-(4-Benzenesulfonylamino-phenyl)-N-hydroxy-acetamide], the EC50 was greater than 25000 nM.

Take `CC(Cc1ccc(NS(=O)(=O)c2ccccc2)cc1)C(=O)NO` (stereo not given) [3-(4-Benzenesulfonylamino-phenyl)-N-hydroxy-2-methyl-propionamide]: the EC50 was greater than 25000 nM.

Molecule `O=C(NO)c1ccc(NS(=O)(=O)c2ccccc2)cc1` [4-Benzenesulfonylamino-N-hydroxy-benzamide] had an EC50 of 5000 nM.

For `O=C(CCc1ccc(NS(=O)(=O)c2ccccc2)cc1)NO` [US8796330, 38], the midpoint of the response, the EC50, lay at 5000 nM.

`O=C(CCCc1ccc(NS(=O)(=O)c2ccccc2)cc1)NO` [US8796330, 42] showed an EC50 greater than 25000 nM.

Consider `CC(C)C(Cc1ccc(NS(=O)(=O)c2ccccc2)cc1)C(=O)NO` (stereo not given) [US8796330, 81], for which the EC50 was greater than 25000 nM.

On to `COc1ccc(S(=O)(=O)Nc2ccc(/C=C/C(=O)NO)cc2)cc1OC` [US8796330, 90], for which a half-maximal response (EC50) required 1000 nM.

In turn, `C/C(=C\c1ccc(NS(=O)(=O)c2ccccc2)cc1)C(=O)NO` [US8796330, 91] returned a concentration giving a half-maximal response (EC50) greater than 25000 nM.

`Cc1ccc(S(=O)(=O)Nc2ccc(/C=C/C(=O)NO)cc2)cc1` [US8796330, 108] displayed an EC50 of 10000 nM.

As to `COc1ccc(S(=O)(=O)Nc2ccc(/C=C/C(=O)NO)cc2)cc1` [US8796330, 113], the EC50 was 5000 nM.

Consider `O=C(/C=C/c1ccc(NS(=O)(=O)c2ccc(-c3ccccc3)cc2)cc1)NO` [US8796330, 120], for which the response was half-maximal at 1000 nM (EC50).

`Cc1ccc(NS(=O)(=O)c2ccc(/C=C/C(=O)NO)cc2)cc1` [US8796330, 161] gave an EC50 of 1000 nM.

The values above are taken from BindingDB's records for doi:10.1021/jm0303094 (Aton Pharma, 2003).
